Consider 37 compounds from ChEMBL document CHEMBL3616389, “Identification of Novel D-Aspartate Oxidase Inhibitors by in Silico Screening and Their Functional and Structural Characterization in Vitro” (J Med Chem, 2015).

For assay [1], the target named is T1, D-aspartate oxidase (Homo sapiens, UniProt Q99489).
T1 sequence (Q99489 whole entry): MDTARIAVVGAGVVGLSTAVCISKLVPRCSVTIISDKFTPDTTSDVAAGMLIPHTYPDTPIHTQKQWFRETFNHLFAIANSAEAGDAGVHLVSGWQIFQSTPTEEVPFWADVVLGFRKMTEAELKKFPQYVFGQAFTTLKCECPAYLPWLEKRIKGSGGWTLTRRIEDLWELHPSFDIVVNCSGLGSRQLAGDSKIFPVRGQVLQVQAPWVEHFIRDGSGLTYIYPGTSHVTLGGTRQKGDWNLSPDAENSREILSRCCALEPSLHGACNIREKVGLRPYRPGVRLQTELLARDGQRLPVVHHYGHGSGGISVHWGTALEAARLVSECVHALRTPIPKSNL
Description: Inhibition of human recombinant DDO expressed in Escherichia coli BL21(DE3) using D-Asp and D-Ala assessed as 2-oxo acid production after 10 mins by colorimetric assay.

The target in assay [2] is D-amino-acid oxidase (Homo sapiens, UniProt P14920). Kind of assay: Inhibition of human recombinant DAO expressed in Escherichia coli BL21(DE3) using D-Asp and D-Ala assessed as 2-oxo acid production after 10 mins by colorimetric assay.
Assay [3] deals with T1, D-aspartate oxidase.
The target in assay [4] is T2, D-aspartate oxidase (Rattus norvegicus) (UniProt D3ZDM7).
T2 sequence (whole entry): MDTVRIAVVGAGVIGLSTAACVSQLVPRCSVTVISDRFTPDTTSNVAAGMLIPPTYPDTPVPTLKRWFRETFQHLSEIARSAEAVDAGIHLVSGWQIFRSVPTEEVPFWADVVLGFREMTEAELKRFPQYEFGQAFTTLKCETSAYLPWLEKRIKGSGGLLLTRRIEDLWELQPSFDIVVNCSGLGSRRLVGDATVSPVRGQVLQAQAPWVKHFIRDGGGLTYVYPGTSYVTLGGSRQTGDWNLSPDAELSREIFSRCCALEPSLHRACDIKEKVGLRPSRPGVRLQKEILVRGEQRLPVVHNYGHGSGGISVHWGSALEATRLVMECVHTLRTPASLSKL
Kind of assay: (§1) Inhibition of rat recombinant DDO using D-Asp.

The target of assay [5] is T3, D-aspartate oxidase (Rattus norvegicus, UniProt D3ZDM7).
T3 sequence (D3ZDM7 whole entry): T2 sequence (whole entry)
Described as §1.

For assay [6], the target named is T4, D-aspartate oxidase (Homo sapiens) (UniProt Q99489).
T4 sequence (whole entry): T1 sequence (Q99489 whole entry)
Description: Competitive inhibition of human recombinant DDO expressed in Escherichia coli BL21(DE3) using D-Asp by Lineweaver-Burk plot analysis.

For assay [7], the target named is T4, D-aspartate oxidase (Homo sapiens). As to conditions: HeLa, 250 uM.
Assay [8] deals with T5, D-aspartate oxidase (Mus musculus, UniProt Q922Z0).
T5 sequence (Q922Z0 whole entry): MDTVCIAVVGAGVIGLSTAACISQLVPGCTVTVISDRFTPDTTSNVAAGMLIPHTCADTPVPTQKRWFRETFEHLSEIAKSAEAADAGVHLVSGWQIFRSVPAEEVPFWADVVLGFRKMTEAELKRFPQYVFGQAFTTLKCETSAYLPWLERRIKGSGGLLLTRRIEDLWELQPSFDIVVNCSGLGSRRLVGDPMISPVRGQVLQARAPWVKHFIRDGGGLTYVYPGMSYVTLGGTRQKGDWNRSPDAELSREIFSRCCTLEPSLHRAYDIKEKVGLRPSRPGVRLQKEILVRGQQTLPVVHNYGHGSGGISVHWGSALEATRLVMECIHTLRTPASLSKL
Description: Inhibition of mouse recombinant DDO using D-Asp.

Assay [9] relates to HeLa. Description: Effect on L-Asp level in human HeLa cells at 250 uM after 24 hrs by HPLC analysis. In kind it is functional, cell-based.
Assay [10] deals with T4, D-aspartate oxidase (Homo sapiens). As to conditions: HeLa, 250 uM. This is another data set of the same source.
Assay [11] has the same target. As to conditions: HeLa, 250 uM. This is another data set of the same source.
Assay [12] shares this target. As to conditions: HeLa, 1000 uM.
For assay [13], the system named is HeLa. Kind of assay: Effect on D-Asp level in human HeLa cells at 1000 uM after 24 hrs by HPLC analysis. In kind it is functional, cell-based.
In assay [14] the target is T4, D-aspartate oxidase (Homo sapiens). As to conditions: HeLa, 1000 uM. The source holds these as a separate data set.
The subject of assay [15] is HeLa. Kind of assay: Effect on L-Asp level in human HeLa cells at 1000 uM after 24 hrs by HPLC analysis. In kind it is functional, cell-based.
Assay [16] relates to HeLa. Kind of assay: Effect on L-Asp level in human HeLa cells at 100 uM after 24 hrs by HPLC analysis. In kind it is functional, cell-based.
Assay [17] has as its system HeLa. Description: Effect on D-Asp level in human HeLa cells at 100 uM after 24 hrs by HPLC analysis. In kind it is functional, cell-based.

The source made the active and inactive calls. The rule behind the calls is not given here. Where only a bound is given, the exact number is not on record here.

Chain of D-amino-acid oxidase (P14920 whole entry): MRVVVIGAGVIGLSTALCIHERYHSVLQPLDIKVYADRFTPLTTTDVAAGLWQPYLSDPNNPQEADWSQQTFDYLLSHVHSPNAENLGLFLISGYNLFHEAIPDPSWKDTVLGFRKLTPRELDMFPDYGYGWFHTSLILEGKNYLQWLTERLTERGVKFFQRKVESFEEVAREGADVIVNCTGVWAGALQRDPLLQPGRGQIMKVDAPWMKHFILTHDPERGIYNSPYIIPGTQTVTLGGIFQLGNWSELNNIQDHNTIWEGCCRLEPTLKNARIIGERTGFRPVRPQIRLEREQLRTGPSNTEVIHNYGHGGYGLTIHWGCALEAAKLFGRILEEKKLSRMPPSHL

Turning to `O=C(O)c1ccccc1` [BENZOIC ACID], the results for the IC50 in assay [1] and in assay [2] were > 10000 µM and 134 µM, respectively.

For the compound `COc1cncc(C(=O)O)c1`, the IC50 (usually the concentration that inhibits the measured activity by half) in assay [1] was > 10000 µM.

With `Nc1ccc(C(=O)O)nc1`, the IC50 in [1] and in [2] was > 10000 µM each time.

With `Nc1cncc(C(=O)O)c1`, the results for the Ki in assay [3], in assay [5] and in [8] were 3.8 µM, 5.89 µM and 8.69 µM, respectively. The inhibition entry in assay [4] is “Dose-dependent effect”. Also, the inhibition result in assay [6], in [10] and in [11] was “Active” each time. Moreover, in assay [7], the inhibition entry was “inactive”. For the same compound, in [9], the result was inactive. Also, the IC50 in assay [1] is 21.9 µM; in assay [2], > 2500 µM.

As for `O=C(O)c1cncc(C(F)(F)F)c1`, the IC50 in [1] is > 10000 µM.

On to `O=C(O)c1cncc(-c2ccccc2)c1`, for which, in [1], the IC50 is > 5000 µM.

With `Cc1cncc(C(=O)O)c1`, the IC50 came out at 5470 µM in [1] and 1500 µM in assay [2].

With `Nc1cccc(C(=O)O)n1`, the IC50 in [1] and in [2] was > 100 µM each time.

On to `O=C(O)c1cncc([N+](=O)[O-])c1`, for which, in assay [1], the IC50 was > 10000 µM.

Regarding `O=C(O)CC(=O)O` [MALONIC ACID], the Ki (usually a dissociation constant, usually derived from enzyme kinetics or from competition with a known ligand) in assay [3] came out at 153 µM; in assay [5], 1560 µM; in [8] it was 1220 µM. In addition, in assay [6], the inhibition entry was “Active”. Moreover, the inhibition result in assay [12] and in [14] was “inactive” in each case. Moreover, the result in assay [13] and in assay [15] was inactive. In addition, the IC50 in assay [1] was 879 µM; in assay [2], > 10000 µM.

Regarding `O=C(O)c1cccnc1` [NIACIN], the IC50 was 2780 µM in assay [1] and 1130 µM in assay [2].

As for `Nc1cccnc1C(=O)O`, the IC50 in assay [1] and in assay [2] was > 1000 µM each time.

Turning to `O=C(O)c1cncc(S(=O)(=O)O)c1`, in [1], the IC50 was > 10000 µM.

Take `O=C(O)c1cncc(Cl)c1`: in assay [1], the IC50 was > 10000 µM.

As to `O=C(O)c1cc2ccccc2n1O`, the IC50 in assay [1] was > 1000 µM; in assay [2] it was 1.34 µM.

On to `O=C(O)c1ncccc1O`, for which the figures for the IC50 in assay [1] and in [2] were > 10000 µM and 2480 µM, respectively.

As to `O=C(O)c1cn2cnnc2nc1O`, the inhibition result in assay [4] was “Dose-dependent effect”. The Ki was 65.9 µM in assay [5] and 32.6 µM in [8]. The result in assay [16] and in assay [17] was inactive. In assay [2], the IC50 was > 500 µM.

Consider `Nc1ccc(Cl)cc1C(=O)O`, for which the IC50 in assay [1] is > 10000 µM; in [2] it was 3930 µM.

`O=C(O)c1cncc(O)c1`: the results for the IC50 in assay [1] and in [2] were 3350 µM and > 10000 µM, respectively.

In the case of `Nc1ccnc(C(=O)O)c1`, the IC50 in [1] and in assay [2] was > 100 µM throughout.

In the case of `Cc1cc(C(=O)O)c(N)s1`, the IC50 was found to be 4250 µM in [1] and 1440 µM in assay [2].

For the compound `Nc1cnccc1C(=O)O`, the IC50 in [1] and in assay [2] was > 5000 µM each time.

With `O=C(O)c1cc(Cl)ccc1O` [5-CHLOROSALICYLIC ACID], the IC50 in assay [1] was > 10000 µM; in [2] it was 3670 µM.

Turning to `O=C(O)c1cncc(Br)c1`, in assay [1], the IC50 was > 10000 µM.

Turning to `O=C(O)c1cncc(F)c1` [5-FLUORONICOTINIC ACID], in assay [1], the IC50 was > 10000 µM.

As to `CN(C)c1cncc(C(=O)O)c1`, the IC50 in [1] is > 1000 µM.

`Nc1ccc(C(=O)O)cn1`: the IC50 in assay [1] was 2360 µM; in assay [2], > 2500 µM.

On to `Cc1ccc(C(=O)O)c(O)n1`, for which the IC50 in assay [1] and in [2] was > 10000 µM each time.

On to `Nc1cc(C(=O)O)ccn1`, for which the IC50 in assay [1] and in [2] was > 100 µM in each case.

Regarding `Nc1ccncc1C(=O)O`, the IC50 in [1] and in assay [2] was > 100 µM throughout.

As to `O=C(O)c1cc(F)ccc1O`, the results for the IC50 in assay [1] and in assay [2] were > 10000 µM and 1050 µM, respectively.

As for `CNc1cncc(C(=O)O)c1`, the figures for the IC50 in assay [1] and in assay [2] were 3540 µM and > 10000 µM, respectively.

For `Nc1cccnc1`, the IC50 in [1] and in [2] was > 10000 µM throughout.

With `Nc1ncccc1C(=O)O`, the IC50 in assay [1] and in assay [2] was > 1000 µM throughout.

In the case of `Nc1cccc(C(=O)O)c1` [3-AMINOBENZOIC ACID], the IC50 was > 10000 µM in assay [1] and 392 µM in [2].

With `NC(=O)c1csc(C(=O)O)c1`, the values for the IC50 in assay [1] and in [2] were > 5000 µM and 347 µM, respectively.

Consider `O=C(O)c1cncc(C(=O)O)c1`, for which the IC50 in assay [1] is > 10000 µM.
